Reference: PMC10808720 (Frontiers in Pharmacology, 2024)

How the values were obtained:
wild-type HAdV5 [1] = assay: HAdV DNA quantification by qPCR; type: cell-based, human adenovirus (HAdV5); details: 10-fold IC50; A549; 24 h; vs DMSO control
Protocol: For DNA quantification, A549 cells (1.5 × 10^5 cells/well in a 24-well plate) were incubated for 24 h in 500 μL of complete DMEM and were infected with wild-type HAdV5 (MOI 100 vp/cell) after observing more than 90% of confluency. Infected cells were incubated for 24 h at 37°C in 500 μL of either complete DMEM containing 10-fold IC50 concentration of the compounds obtained in the plaque assay or the same volume of DMSO (positive control). All samples were prepared in duplicate. After 24 h of incubation at 37°C, DNA was purified from the cell lysate with the E.Z.N.A.® Tissue DNA Kit (Omega Bio-tek, Norcross, GA) following the manufacturer’s instructions. PCR conditions, primers, and probes were as described by [Henke-Gendo et al. (2012)]. Human glyceraldehyde-3-phosphate dehydrogenase (GAPDH) gene was used as an internal control. GAPDH oligonucleotide sequences and conditions were as previously described by [Rivera et al. (2004)].
For quantification, gene fragments from hexons, and GAPDH were cloned into the pGEM-T Easy vector (Promega) and known concentrations of the template were used to generate a standard curve in parallel for each experiment, as previously reported ([Sanchez-Cespedes et al., 2016]). All assays were performed in thermal cycler LightCycler® 96 System (Roche).

[2] = Cytotoxicity assay (AlamarBlue); type: cell-based, Human; details: human, A549 cells
Protocol: The cytotoxicity of the molecules was analyzed using the commercial kit AlamarBlue® (Invitrogen, Ref. DAL1025) according to the manufacturer’s instructions. Briefly, A549 cells were seeded at a density of 5 × 10^3 cells per well in 96-well plates, and decreasing serial dilutions of each molecule were diluted in 100 μL of DMEM starting at 200 μM. The cells were then incubated at 37°C for 48 h following the manufacturer’s protocol. The cytotoxic concentration 50% (CC50) value was obtained using the statistical software GraphPad Prism 6. The assay was performed in duplicate.

HAdV-RFP = assay: Direct interaction of rotenone with HAdV particles (pre-incubated virions, RFP expression); type: cell-based, human adenovirus (HAdV5); details: virions pre-incubated with 0.1 µM; 48 h; A549
Protocol: These treated virions were then added to A549 cells and incubated for 1 h on ice, to allow the HAdV particles to attach to the cells.

HAdV5-GFP = assay: microbe, parasite or virus in culture; type: cell-based, human adenovirus (HAdV5); details: Human adenovirus sp.
Protocol: Compounds were tested using low MOI infections (0.06 vp/cell), initially at concentrations of 10 μM and subsequently in a dose-response assay ranging from 10 μM to 2.44 nM in a plaque assay. Briefly, 293β5 cells were seeded in 6-well plates at a density of 1 × 10^6 cells per well in duplicate for each condition. When the cells reached 80%–90% confluency, they were infected with HAdV5-GFP and rocked for 2 h at 37°C. After the incubation, the inoculum was removed and the cells were washed once with PBS. Cells were then carefully overlaid with equal parts of 4 mL/well 1.6% ([…]) Difco Agar Noble (Becton, Dickinson & Co., Sparks, MD, USA) and 2× Eagle’s Minimum Essential Medium (EMEM; BioWhittaker) supplemented with 2×penicillin/streptomycin, 2× L-glutamine, and 10% FBS. The mixture also contained the compounds in the concentration ranges described above. Following incubation for 7 days at 37°C, plates were scanned with a Typhoon FLA 9000 imager (GE Healthcare Life Sciences) and the formed plaques were quantified with ImageJ ([Schneider et al., 2012]). Plaque counting was performed to calculate the 50% inhibitory concentration (IC50) of each compound using the statistical software GraphPad Prism 6.

[3] = animals; ref Ray et al., 1991; Vats, 2018; Vats and Mehre, 2020; cited from earlier work
wild-type HAdV5 [4] = assay: HAdV/tubulin colocalization (confocal microscopy); type: cell-based, human adenovirus (HAdV5); details: 0.05 μM; 90 min after synchronized infection; A549
Protocol: The coverslips were previously washed with acetone, distilled water and absolute ethanol sequentially, and washed with 1x PBS, and treated with poly-L-lysine (Merck, Darmstadt, Germany) for 1 h, and washed again twice with 1x PBS. […] The infection was synchronized for 1 h on ice, excess virus was removed, and the cells were incubated for 90 min at 37°C and 5% CO2. Finally, the cells were fixed with methanol/acetone 50% for 10 min at −20°C whereupon nonspecific unions were blocked with PBS/BSA 10% for 1 h at room temperature. The cells were then incubated with hexon protein mouse monoclonal IgG (DSHB, Iowa City, USA) and anti-gamma-tubulin antibody marked by Alexa Fluor® 647 (Abcam, Cambridge, UK) for 60 min at room temperature. After rinsing with 1x PBS, the cells were incubated with Alexa Fluor 488 goat anti-mouse IgG (Thermo Fisher Scientific, MA, USA) for 20 min at room temperature, and DAPI (Merck) was added for 5 min to stain the nucleus. Finally, coverslips were fixed on the slides with a mounting medium prepared from one part of 10x PBS and 9 parts of glycerol and stored in the dark overnight at 4°C. […] The Z-series was analyzed by first determining the region of interest and then measuring the fluorescence signal using ImageJ.

HAdV5 = assay: HAdV-mediated endosome disruption (α-sarcin co-delivery, HPG incorporation); type: cell-based, human adenovirus (HAdV5)
Protocol: A549 cells (2 × 10^4 cells/well) were incubated in DMEM without cysteine or methionine supplemented with 10% dialyzed FBS [DMEM(−)] in black 96-well plates for 1 h prior to infection. Three-fold serial dilutions (0.45 ng–1,000 ng) of HAdV5, or AdV2ts1 were preincubated with cells in the presence of 10-fold IC50 concentration of the compounds obtained in the plaque assay or the same volume of DMSO for positive control for 1 h. The medium was then removed and replaced with 50 μL DMEM(−) containing 0.1 mg/ml α-sarcin (Santa Cruz Biotechnology, Dallas, Texas, USA) and drug mixtures. After 1 h at 37°C, the Click-iT L-homopropargylglycine (HPG) Alexa Fluor 488 Protein Synthesis Assay Kits (Invitrogen) was used to analyse protein synthesis according to the manufacturer’s instructions. The incorporation of the amino acid analogue of methionine HPG containing Alexa Fluor 488 azide was measured using a Typhoon 9410 imager (GE Healthcare Life Sciences) and calculated by subtracting the background level of the control well containing HPG and α-sarcin but not the virus (100% incorporation).

Question: For `C=C(C)[C@H]1Cc2c(ccc3c2O[C@@H]2COc4cc(OC)c(OC)cc4[C@@H]2C3=O)O1` [Rotenone, (2R,6aS,12aS)-8,9-dimethoxy-2-(prop-1-en-2-yl)-1,2,12,12a-tetrahydrochromeno[3,4-b]furo[2,3-h]chromen-6-(6aH)-one], which “HAdV DNA copy number (de novo synthesis)” value (wild-type HAdV5 [1]) is on record?
Answer: significant decrease

Question: And the CC50 at 48 h [2]?
Answer: 600 ± 200 nM

Question: What about the “level of RFP inhibition, cells incubated with vs without rotenone after attachment” value (HAdV-RFP) of the same compound?
Answer: no differences

Question: And the IC50 (HAdV5-GFP; 168 h, read-out: IC50 plaque assay)?
Answer: 3.9 ± 0.1 nM

Question: And the inhibition at 0.004 µM (HAdV5-GFP; read-out: inhibition of plaque formation)?
Answer: 67.8%

Question: What about the estimated lethal dose [3] of the same compound?
Answer: 300 to 500 mg/kg

Question: What about the “colocalization of HAdV particles with the tubulin” value (wild-type HAdV5 [4]) of the same compound?
Answer: lower level of colocalization

Question: What about the HPG incorporation (HAdV5; compared with a control without α-sarcin, 10-fold IC50, independent of virus concentration) of the same compound?
Answer: approximately 30%

Question: What about the “attenuation of HAdV-mediated endosomolysis” value (HAdV5; α-sarcin assay) of the same compound?
Answer: did not attenuate
